PubChem BioAssay (NCI)
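Growth conditions: 96-well plates. Treatment: test compound, 48 hours, 5 concentrations. Analysis: linear interpolation between bracketing concentrations; unreached endpoints set to highest concentration. GI50: concentration for 50% inhibition of growth. TGI denotes the concentration required for complete inhibition of growth.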

What was measured:
Test in all cases: NCI anticancer screen, dose series, 48 h
HS 578T breast = test system: HS 578T breast
MOLT-4 leukemia = test system: MOLT-4 leukemia
HT29 colon = test system: HT29 colon
OVCAR-8 ovarian = test system: OVCAR-8 ovarian
HCT-116 colon = test system: HCT-116 colon
HL-60(TB) leukemia = test system: HL-60(TB) leukemia
SR leukemia = test system: SR leukemia
RPMI-8226 leukemia = test system: RPMI-8226 leukemia
CCRF-CEM leukemia = test system: CCRF-CEM leukemia
NCI-H460 lung = test system: NCI-H460 lung
K-562 leukemia = test system: K-562 leukemia
LOX IMVI melanoma = test system: LOX IMVI melanoma
MDA-MB-231 breast = test system: MDA-MB-231 breast
TK-10 renal = test system: TK-10 renal
SW-620 colon = test system: SW-620 colon
DU-145 prostate = test system: DU-145 prostate
RXF 393 renal = test system: RXF 393 renal
SF-268 CNS = test system: SF-268 CNS
MCF7 breast = test system: MCF7 breast
NCI-H522 lung = test system: NCI-H522 lung
MALME-3M melanoma = test system: MALME-3M melanoma
SNB-75 CNS = test system: SNB-75 CNS
T-47D breast = test system: T-47D breast
NCI-H226 lung = test system: NCI-H226 lung
UO-31 renal = test system: UO-31 renal
OVCAR-4 ovarian = test system: OVCAR-4 ovarian
HCC-2998 colon = test system: HCC-2998 colon
COLO 205 colon = test system: COLO 205 colon
NCI/ADR-RES ovarian = test system: NCI/ADR-RES ovarian
NCI-H23 lung = test system: NCI-H23 lung
KM12 colon = test system: KM12 colon
PC-3 prostate = test system: PC-3 prostate
HOP-62 NSCLC = test system: HOP-62 NSCLC
HOP-92 NSCLC = test system: HOP-92 NSCLC
SK-MEL-2 melanoma = test system: SK-MEL-2 melanoma
SK-OV-3 ovarian = test system: SK-OV-3 ovarian
OVCAR-3 ovarian = test system: OVCAR-3 ovarian
IGROV1 ovarian = test system: IGROV1 ovarian
SK-MEL-5 melanoma = test system: SK-MEL-5 melanoma
UACC-257 melanoma = test system: UACC-257 melanoma
A549 NSCLC = test system: A549 NSCLC
SK-MEL-28 melanoma = test system: SK-MEL-28 melanoma
U251 CNS = test system: U251 CNS
CAKI-1 renal = test system: CAKI-1 renal
BT-549 breast = test system: BT-549 breast
UACC-62 melanoma = test system: UACC-62 melanoma
ACHN renal = test system: ACHN renal
EKVX NSCLC = test system: EKVX NSCLC
SF-295 CNS = test system: SF-295 CNS
HCT-15 colon = test system: HCT-15 colon
A498 renal = test system: A498 renal
SNB-19 CNS = test system: SNB-19 CNS
M14 melanoma = test system: M14 melanoma
OVCAR-5 ovarian = test system: OVCAR-5 ovarian
SF-539 CNS = test system: SF-539 CNS
MDA-MB-435 = test system: MDA-MB-435
786-0 renal = test system: 786-0 renal
SN12C renal = test system: SN12C renal

## COc1cc(/C=C/C(=O)c2c(C)nc3ccccc3c2/C=C/c2ccccc2)cc(OC)c1OC
HS 578T breast
  GI50: 4.2 µM
  TGI: > 100 µM
MOLT-4 leukemia
  GI50: 2.21 µM
  TGI: 8.61 µM
HT29 colon
  GI50: 1.87 µM
  TGI: > 100 µM
OVCAR-8 ovarian
  GI50: 1.78 µM
  TGI: > 100 µM
HCT-116 colon
  GI50: 0.514 µM
  TGI: 1.91 µM
HL-60(TB) leukemia
  GI50: 1.63 µM
  TGI: 6 µM
SR leukemia
  GI50: 1.14 µM
  TGI: 6.54 µM
RPMI-8226 leukemia
  GI50: 2.21 µM
  TGI: > 100 µM
CCRF-CEM leukemia
  GI50: 2.09 µM
  TGI: > 100 µM
NCI-H460 lung
  GI50: 1.86 µM
  TGI: 4.96 µM
K-562 leukemia
  GI50: 0.827 µM
  TGI: > 100 µM
LOX IMVI melanoma
  GI50: 1.42 µM
  TGI: 2.78 µM
MDA-MB-231 breast
  GI50: 2.15 µM
  TGI: > 100 µM

## CC(C)c1ccc(Cn2ccc3c4c(N)nc(NC5CC5)nc4ccc32)cc1
TK-10 renal
  GI50: 1.23 µM
  TGI: 2.57 µM
SW-620 colon
  GI50: 0.326 µM
  TGI: 1.32 µM
DU-145 prostate
  GI50: 0.399 µM
  TGI: 1.38 µM
NCI-H460 lung
  GI50: 0.198 µM
  TGI: 1.07 µM
RXF 393 renal
  GI50: 0.172 µM
  TGI: 0.58 µM

## CCCCN(CCCC)Cc1cc(Nc2ccnc3cc(Cl)ccc23)ccc1O
SF-268 CNS
  GI50: > 100 µM
  TGI: > 100 µM
MCF7 breast
  GI50: 8.91 µM
  TGI: > 100 µM
NCI-H522 lung
  GI50: 3.75 µM
  TGI: > 100 µM
MOLT-4 leukemia
  GI50: 37.5 µM
  TGI: > 100 µM
HT29 colon
  GI50: 0.491 µM
  TGI: > 100 µM
MALME-3M melanoma
  GI50: 24.5 µM
  TGI: > 100 µM
OVCAR-8 ovarian
  GI50: 9.03 µM
  TGI: > 100 µM
TK-10 renal
  GI50: 2.62 µM
  TGI: 26.4 µM
SNB-75 CNS
  GI50: 2.83 µM
  TGI: 13.6 µM
T-47D breast
  GI50: 35.9 µM
  TGI: > 100 µM
NCI-H226 lung
  GI50: 11.1 µM
  TGI: > 100 µM
UO-31 renal
  GI50: 1.38 µM
  TGI: > 100 µM
OVCAR-4 ovarian
  GI50: > 100 µM
  TGI: > 100 µM
DU-145 prostate
  GI50: > 100 µM
  TGI: > 100 µM
HCC-2998 colon
  GI50: 42.4 µM
  TGI: > 100 µM
COLO 205 colon
  GI50: 6.68 µM
  TGI: > 100 µM
NCI/ADR-RES ovarian
  GI50: 4.38 µM
  TGI: > 100 µM
NCI-H23 lung
  GI50: 8.23 µM
  TGI: > 100 µM
KM12 colon
  GI50: > 100 µM
  TGI: > 100 µM
PC-3 prostate
  GI50: 5.73 µM
  TGI: > 100 µM
HL-60(TB) leukemia
  GI50: 5.88 µM
  TGI: > 100 µM
SR leukemia
  GI50: 6.59 µM
  TGI: > 100 µM
HOP-62 NSCLC
  GI50: 2.54 µM
  TGI: > 100 µM
HOP-92 NSCLC
  GI50: 0.982 µM
  TGI: 22.9 µM
RPMI-8226 leukemia
  GI50: 6.6 µM
  TGI: > 100 µM
CCRF-CEM leukemia
  GI50: 17.5 µM
  TGI: > 100 µM
SK-MEL-2 melanoma
  GI50: 45.1 µM
  TGI: > 100 µM
SK-OV-3 ovarian
  GI50: 8.83 µM
  TGI: > 100 µM
K-562 leukemia
  GI50: 2.3 µM
  TGI: > 100 µM
OVCAR-3 ovarian
  GI50: 74.7 µM
  TGI: > 100 µM
IGROV1 ovarian
  GI50: 7.36 µM
  TGI: > 100 µM
LOX IMVI melanoma
  GI50: 2.81 µM
  TGI: > 100 µM
SK-MEL-5 melanoma
  GI50: 8.29 µM
  TGI: > 100 µM
RXF 393 renal
  GI50: 20.9 µM
  TGI: > 100 µM
UACC-257 melanoma
  GI50: 40.1 µM
  TGI: > 100 µM
A549 NSCLC
  GI50: 19.8 µM
  TGI: > 100 µM
SK-MEL-28 melanoma
  GI50: 43.1 µM
  TGI: > 100 µM
U251 CNS
  GI50: 7.82 µM
  TGI: > 100 µM

## O=C1[C@H](O)[C@@H]2C(O)O[C@H]3[C@@H]2N1C[C@H]3[Si](c1ccccc1)(c1ccccc1)c1ccccc1 (stereo partly specified)
CAKI-1 renal
  TGI: > 100 µM
SF-268 CNS
  TGI: > 100 µM
MCF7 breast
  TGI: > 100 µM
BT-549 breast
  TGI: > 100 µM
UACC-62 melanoma
  TGI: > 100 µM
MOLT-4 leukemia
  TGI: > 100 µM
HT29 colon
  TGI: > 100 µM
OVCAR-8 ovarian
  TGI: > 100 µM
HCT-116 colon
  TGI: > 100 µM
TK-10 renal
  TGI: > 100 µM
SNB-75 CNS
  TGI: 69.4 µM
ACHN renal
  TGI: > 100 µM
T-47D breast
  TGI: > 100 µM
NCI-H226 lung
  TGI: > 100 µM
EKVX NSCLC
  TGI: > 100 µM
SW-620 colon
  TGI: > 100 µM
UO-31 renal
  TGI: > 100 µM
OVCAR-4 ovarian
  TGI: > 100 µM
DU-145 prostate
  TGI: > 100 µM
HCC-2998 colon
  TGI: > 100 µM
SF-295 CNS
  TGI: > 100 µM
COLO 205 colon
  TGI: > 100 µM
HCT-15 colon
  TGI: > 100 µM
NCI/ADR-RES ovarian
  TGI: > 100 µM
NCI-H23 lung
  TGI: > 100 µM
KM12 colon
  TGI: > 100 µM
PC-3 prostate
  TGI: > 100 µM
A498 renal
  TGI: > 100 µM
SNB-19 CNS
  TGI: > 100 µM
SR leukemia
  TGI: > 100 µM
HOP-62 NSCLC
  TGI: > 100 µM
M14 melanoma
  TGI: > 100 µM
OVCAR-5 ovarian
  TGI: > 100 µM
RPMI-8226 leukemia
  TGI: > 100 µM
SK-MEL-2 melanoma
  TGI: > 100 µM
SK-OV-3 ovarian
  TGI: > 100 µM
NCI-H460 lung
  TGI: > 100 µM
K-562 leukemia
  TGI: > 100 µM
OVCAR-3 ovarian
  TGI: > 100 µM
IGROV1 ovarian
  TGI: > 100 µM
LOX IMVI melanoma
  TGI: > 100 µM
SK-MEL-5 melanoma
  TGI: > 100 µM
RXF 393 renal
  TGI: > 100 µM
UACC-257 melanoma
  TGI: > 100 µM
A549 NSCLC
  TGI: > 100 µM
SK-MEL-28 melanoma
  TGI: > 100 µM
SF-539 CNS
  TGI: > 100 µM
MDA-MB-231 breast
  TGI: > 100 µM
MDA-MB-435
  TGI: > 100 µM
U251 CNS
  TGI: > 100 µM
786-0 renal
  TGI: > 100 µM

## O=S1(=O)c2ccccc2Oc2ccc(C(/C=N/O)=N/O)cc21
CAKI-1 renal
  TGI: 42.2 µM
SF-268 CNS
  TGI: > 100 µM
MCF7 breast
  TGI: 92.5 µM
NCI-H522 lung
  TGI: 26.7 µM
UACC-62 melanoma
  TGI: > 100 µM
MOLT-4 leukemia
  TGI: > 100 µM
HT29 colon
  TGI: > 100 µM
MALME-3M melanoma
  TGI: 25.7 µM
OVCAR-8 ovarian
  TGI: 47.7 µM
HCT-116 colon
  TGI: > 100 µM
TK-10 renal
  TGI: 30.8 µM
SNB-75 CNS
  TGI: > 100 µM
ACHN renal
  TGI: > 100 µM
T-47D breast
  TGI: 35.6 µM
NCI-H226 lung
  TGI: > 100 µM
EKVX NSCLC
  TGI: 57.7 µM
UO-31 renal
  TGI: 68.8 µM
OVCAR-4 ovarian
  TGI: > 100 µM
DU-145 prostate
  TGI: 53 µM
SF-295 CNS
  TGI: 51.2 µM
COLO 205 colon
  TGI: > 100 µM
HCT-15 colon
  TGI: > 100 µM
NCI/ADR-RES ovarian
  TGI: 53.9 µM
KM12 colon
  TGI: > 100 µM
PC-3 prostate
  TGI: > 100 µM
HL-60(TB) leukemia
  TGI: 47.3 µM
HOP-62 NSCLC
  TGI: > 100 µM
HOP-92 NSCLC
  TGI: > 100 µM
M14 melanoma
  TGI: > 100 µM
OVCAR-5 ovarian
  TGI: > 100 µM
RPMI-8226 leukemia
  TGI: 53.5 µM
CCRF-CEM leukemia
  TGI: 72.1 µM
SN12C renal
  TGI: > 100 µM
SK-MEL-2 melanoma
  TGI: 70.7 µM
SK-OV-3 ovarian
  TGI: > 100 µM
NCI-H460 lung
  TGI: > 100 µM
K-562 leukemia
  TGI: > 100 µM
OVCAR-3 ovarian
  TGI: 36.6 µM
IGROV1 ovarian
  TGI: 68.9 µM
LOX IMVI melanoma
  TGI: 41.5 µM
RXF 393 renal
  TGI: 63.6 µM
A549 NSCLC
  TGI: > 100 µM
SK-MEL-28 melanoma
  TGI: > 100 µM
SF-539 CNS
  TGI: 84.8 µM
MDA-MB-231 breast
  TGI: > 100 µM
MDA-MB-435
  TGI: 52.4 µM
U251 CNS
  TGI: > 100 µM
786-0 renal
  TGI: > 100 µM
